{
  "source": "patent US20260130933A1",
  "about": "“PHARMACEUTICAL COMPOSITION FOR PREVENTION OR TREATMENT OF NEPHROPATHY AND/OR DIABETES MELLITUS, COMPRISING ENAVOGLIFLOZIN” (DAEWOONG PHARMACEUTICAL CO., LTD., priority 2022, published 2026)",
  "experiment": "Example 1: phase 3 trial, enavogliflozin 0.3 mg once a day as monotherapy vs placebo for 24 weeks in patients with type 2 diabetes (HbA1c, FPG, C-peptide, body weight, lipids, blood pressure, HOMA, UACR, UGCR, adiponectin, leptin, safety)",
  "assay_type": "in vivo, human",
  "experimental": "When a subject voluntarily gave written consent to participate in this clinical trial, a screening test was conducted. […] However, when the administration of a hypoglycemic agent was interrupted before the clinical trial Visit 1 (screening), at least an 8-week washout period, including the discontinuation period, was required, and during this period, a stable diet and exercise program was followed. Naïve patients were screened without a separate washout period, and the criteria for naïve patients were defined as patients who had not been administered hypoglycemic agents within 24 weeks prior to the date of obtaining written consent. […] In addition, they were instructed to maintain regular exercise and dietary control starting from 8 weeks prior to screening without changing their daily life patterns during the clinical trial period.",
  "data": [
    {"smiles": "OC[C@H]1O[C@@H](c2cc(Cc3ccc(C4CC4)cc3)c(Cl)c3c2CCO3)[C@H](O)[C@@H](O)[C@@H]1O", "note": "[Enavogliflozin, (2S,3R,4R,5S,6R)-2-(7-chloro-6 (4-cyclopropylbenzyl)-2,3-dihydrobenzofuran-4-yl)-6-(hydroxymethyl)tetrahydro-2H-pyran-3,4,5-triol]", "values": [
      {"measurement": "fasting C-peptide, Mean (SD)", "setting": "week 6", "result": 0.66, "unit": "ng/mL"},
      {"measurement": "systolic blood pressure change from baseline, LS mean", "setting": "week 6", "result": "−5.38", "unit": "mmHg"},
      {"measurement": "systolic blood pressure change from baseline, Mean", "setting": "week 6", "result": "−4.81", "unit": "mmHg"},
      {"measurement": "total cholesterol change from baseline, LS mean", "setting": "week 6", "result": 5.76, "unit": "mg/dL"},
      {"measurement": "total cholesterol change from baseline, Mean", "setting": "week 6", "result": 5.75, "unit": "mg/dL"},
      {"measurement": "total cholesterol, Mean", "setting": "week 6", "result": 166.11, "unit": "mg/dL"},
      {"measurement": "triglycerides change from baseline, LS mean", "setting": "week 6", "result": -5.05, "unit": "mg/dL"},
      {"measurement": "triglycerides change from baseline, Mean", "setting": "week 6", "result": -1.21, "unit": "mg/dL"},
      {"measurement": "triglycerides, Mean", "setting": "week 6", "result": 116.13, "unit": "mg/dL"},
      {"measurement": "FPG change from baseline, LS mean difference", "setting": "week 6, vs placebo", "result": -26.91, "unit": "mg/dL"},
      {"measurement": "HDL-C change from baseline, LS mean difference", "setting": "week 6, vs placebo", "result": 1.89, "unit": "mg/dL"},
      {"measurement": "HOMA-IR change from baseline, LS mean difference", "setting": "week 6, vs placebo", "result": "−1.81"},
      {"measurement": "HOMA-β change from baseline, LS mean difference", "setting": "week 6, vs placebo", "result": 3.30},
      {"measurement": "HbA1c change from baseline, LS mean difference", "setting": "week 6, vs placebo", "result": "−0.52", "unit": "% p"},
      {"measurement": "LDL-C change from baseline, LS mean difference", "setting": "week 6, vs placebo", "result": 0.64, "unit": "mg/dL"},
      {"measurement": "Odds ratio for achieving HbA1c<6.5%", "setting": "week 6, vs placebo", "result": 3.29},
      {"measurement": "Odds ratio for achieving HbA1c<7%", "setting": "week 6, vs placebo", "result": 6.55},
      {"measurement": "Odds ratio for achieving therapeutic response", "setting": "week 6, vs placebo", "result": 12.84},
      {"measurement": "UACR change from baseline, LS mean difference", "setting": "week 6, vs placebo", "result": 7.96, "unit": "g/kg"},
      {"measurement": "UGCR change from baseline, LS mean difference", "setting": "week 6, vs placebo", "result": 52.97, "unit": "mg/mg"},
      {"measurement": "adiponectin change from baseline, LS mean difference", "setting": "week 6, vs placebo", "result": 0.26, "unit": "µg/mL"},
      {"measurement": "body weight change from baseline, LS mean difference", "setting": "week 6, vs placebo", "result": -1.45, "unit": "kg"},
      {"measurement": "diastolic blood pressure change from baseline, LS mean difference", "setting": "week 6, vs placebo", "result": "−2.43", "unit": "mmHg"},
      {"measurement": "fasting C-peptide change from baseline, LS mean difference", "setting": "week 6, vs placebo", "result": -0.11, "unit": "ng/mL"},
      {"measurement": "leptin change from baseline, LS mean difference", "setting": "week 6, vs placebo", "result": -2.89, "unit": "ng/mL"},
      {"measurement": "systolic blood pressure change from baseline, LS mean difference", "setting": "week 6, vs placebo", "result": "−4.07", "unit": "mmHg"},
      {"measurement": "total cholesterol change from baseline, LS mean difference", "setting": "week 6, vs placebo", "result": 1.95, "unit": "mg/dL"},
      {"measurement": "triglycerides change from baseline, LS mean difference", "setting": "week 6, vs placebo", "result": -17.69, "unit": "mg/dL"},
      {"measurement": "HbA1c change from baseline, LS mean difference", "setting": "week 6, vs placebo, listed as enavogliflozin", "result": -0.52, "unit": "% p"},
      {"measurement": "Body weight, Mean", "setting": "week 12", "result": 66.12, "unit": "kg"},
      {"measurement": "Diastolic blood pressure, Mean", "setting": "week 12", "result": 72.83, "unit": "mmHg"},
      {"measurement": "FPG change from baseline, LS mean (SE)", "setting": "week 12", "result": "−30.66(2.93) mg/dL"},
      {"measurement": "FPG change from baseline, Mean (SD)", "setting": "week 12", "result": "−29.34(20.90) mg/dL"},
      {"measurement": "FPG, Mean (SD)", "setting": "week 12", "result": "111.66(13.55) mg/dL"},
      {"measurement": "HDL-C change from baseline, LS mean", "setting": "week 12", "result": 2.35, "unit": "mg/dL"},
      {"measurement": "HDL-C change from baseline, Mean", "setting": "week 12", "result": 2.22, "unit": "mg/dL"},
      {"measurement": "HDL-C, Mean", "setting": "week 12", "result": 54.14, "unit": "mg/dL"},
      {"measurement": "HbA1c change from baseline, LS mean (SE)", "setting": "week 12", "result": "−0.84(0.07) % p"},
      {"measurement": "HbA1c change from baseline, Mean (SD)", "setting": "week 12", "result": "−0.80(0.55) % p"},
      {"measurement": "HbA1c, Mean (SD)", "setting": "week 12", "result": "6.84(0.53) %"},
      {"measurement": "LDL-C change from baseline, LS mean", "setting": "week 12", "result": -2.31, "unit": "mg/dL"},
      {"measurement": "LDL-C change from baseline, Mean", "setting": "week 12", "result": -0.09, "unit": "mg/dL"},
      {"measurement": "LDL-C, Mean", "setting": "week 12", "result": 95.38, "unit": "mg/dL"},
      {"measurement": "Subjects achieving HbA1c target of <6.5%", "setting": "week 12", "result": "22(26.83) %"},
      {"measurement": "Subjects achieving HbA1c target of <7%", "setting": "week 12", "result": "54(65.85) %"},
      {"measurement": "Subjects achieving therapeutic glycemic response (HbA1c change >0.5% or HbA1c<7%)", "setting": "week 12", "result": "70(85.37) %"},
      {"measurement": "Systolic blood pressure, Mean", "setting": "week 12", "result": 122.06, "unit": "mmHg"},
      {"measurement": "body weight change from baseline, LS mean", "setting": "week 12", "result": -2.59, "unit": "kg"},
      {"measurement": "body weight change from baseline, Mean", "setting": "week 12", "result": -2.65, "unit": "kg"},
      {"measurement": "diastolic blood pressure change from baseline, LS mean", "setting": "week 12", "result": "−3.82", "unit": "mmHg"},
      {"measurement": "diastolic blood pressure change from baseline, Mean", "setting": "week 12", "result": "−3.40", "unit": "mmHg"},
      {"measurement": "fasting C-peptide, Mean (SD)", "setting": "week 12", "result": 0.64, "unit": "ng/mL"},
      {"measurement": "systolic blood pressure change from baseline, LS mean", "setting": "week 12", "result": "−6.37", "unit": "mmHg"},
      {"measurement": "systolic blood pressure change from baseline, Mean", "setting": "week 12", "result": "−5.78", "unit": "mmHg"},
      {"measurement": "total cholesterol change from baseline, LS mean", "setting": "week 12", "result": 4.75, "unit": "mg/dL"},
      {"measurement": "total cholesterol change from baseline, Mean", "setting": "week 12", "result": 5.99, "unit": "mg/dL"},
      {"measurement": "total cholesterol, Mean", "setting": "week 12", "result": 167.40, "unit": "mg/dL"},
      {"measurement": "triglycerides change from baseline, LS mean", "setting": "week 12", "result": 6.37, "unit": "mg/dL"},
      {"measurement": "triglycerides change from baseline, Mean", "setting": "week 12", "result": 2.90, "unit": "mg/dL"},
      {"measurement": "triglycerides, Mean", "setting": "week 12", "result": 120.34, "unit": "mg/dL"},
      {"measurement": "FPG change from baseline, LS mean difference", "setting": "week 12, vs placebo", "result": -32.26, "unit": "mg/dL"},
      {"measurement": "HDL-C change from baseline, LS mean difference", "setting": "week 12, vs placebo", "result": 2.36, "unit": "mg/dL"},
      {"measurement": "HOMA-IR change from baseline, LS mean difference", "setting": "week 12, vs placebo", "result": "−1.72"},
      {"measurement": "HOMA-β change from baseline, LS mean difference", "setting": "week 12, vs placebo", "result": 12.09},
      {"measurement": "HbA1c change from baseline, LS mean difference", "setting": "week 12, vs placebo", "result": "−0.71", "unit": "% p"},
      {"measurement": "LDL-C change from baseline, LS mean difference", "setting": "week 12, vs placebo", "result": -6.00, "unit": "mg/dL"},
      {"measurement": "Odds ratio for achieving HbA1c<6.5%", "setting": "week 12, vs placebo", "result": 7.58},
      {"measurement": "Odds ratio for achieving HbA1c<7%", "setting": "week 12, vs placebo", "result": 6.53},
      {"measurement": "Odds ratio for achieving therapeutic response", "setting": "week 12, vs placebo", "result": 14.77},
      {"measurement": "UACR change from baseline, LS mean difference", "setting": "week 12, vs placebo", "result": -15.16, "unit": "g/kg"},
      {"measurement": "UGCR change from baseline, LS mean difference", "setting": "week 12, vs placebo", "result": 51.21, "unit": "mg/mg"},
      {"measurement": "adiponectin change from baseline, LS mean difference", "setting": "week 12, vs placebo", "result": 0.67, "unit": "µg/mL"},
      {"measurement": "body weight change from baseline, LS mean difference", "setting": "week 12, vs placebo", "result": -1.66, "unit": "kg"},
      {"measurement": "diastolic blood pressure change from baseline, LS mean difference", "setting": "week 12, vs placebo", "result": "−2.33", "unit": "mmHg"},
      {"measurement": "fasting C-peptide change from baseline, LS mean difference", "setting": "week 12, vs placebo", "result": -0.12, "unit": "ng/mL"},
      {"measurement": "leptin change from baseline, LS mean difference", "setting": "week 12, vs placebo", "result": -3.17, "unit": "ng/mL"},
      {"measurement": "systolic blood pressure change from baseline, LS mean difference", "setting": "week 12, vs placebo", "result": "−3.06", "unit": "mmHg"},
      {"measurement": "total cholesterol change from baseline, LS mean difference", "setting": "week 12, vs placebo", "result": -4.04, "unit": "mg/dL"},
      {"measurement": "triglycerides change from baseline, LS mean difference", "setting": "week 12, vs placebo", "result": -10.37, "unit": "mg/dL"},
      {"measurement": "Body weight, Mean", "setting": "week 18", "result": 65.32, "unit": "kg"},
      {"measurement": "Diastolic blood pressure, Mean", "setting": "week 18", "result": 72.60, "unit": "mmHg"},
      {"measurement": "FPG change from baseline, LS mean (SE)", "setting": "week 18", "result": "−31.97(3.23) mg/dL"},
      {"measurement": "FPG change from baseline, Mean (SD)", "setting": "week 18", "result": "−30.52(22.34) mg/dL"},
      {"measurement": "FPG, Mean (SD)", "setting": "week 18", "result": "110.48(14.49) mg/dL"},
      {"measurement": "HDL-C change from baseline, LS mean", "setting": "week 18", "result": 4.18, "unit": "mg/dL"},
      {"measurement": "HDL-C change from baseline, Mean", "setting": "week 18", "result": 3.62, "unit": "mg/dL"},
      {"measurement": "HDL-C, Mean", "setting": "week 18", "result": 55.55, "unit": "mg/dL"},
      {"measurement": "HbA1c change from baseline, LS mean (SE)", "setting": "week 18", "result": "−0.81(0.09) % p"},
      {"measurement": "HbA1c change from baseline, Mean (SD)", "setting": "week 18", "result": "−0.77(0.67) % p"}
    ]}
  ]
}
